ChEMBL document CHEMBL4219123, “Synthesis of new analogs of tetraiodothyroacetic acid (tetrac) as novel angiogenesis inhibitors for treatment of cancer” (Bioorg Med Chem Lett, 2018)
Calls of active or inactive are those of the source. The rule behind the calls is not given here.

System: Mus musculus
Assay: Antiangiogenic activity in C57/B6 mouse injected with matrigel containing murine vascular growth factor assessed as reduction in hemoglobin content in matrigel plug at 10ug/10ull to 200 uL matrigel administered subcutaneously measured after 14 days by spectrophotometry-based Drabkin method
Type: functional, organism-based

Q: With `O=C(O)Cc1cc(I)c(Oc2cc(I)c(OCCCc3ccccc3)c(I)c2)c(I)c1` as the compound, how does the Activity read?
A: Active

Q: For `O=C(O)Cc1cc(I)c(Oc2cc(I)c(OCc3cccnc3)c(I)c2)c(I)c1`, which Activity is on record?
A: Active

Q: For `O=C(O)Cc1cc(I)c(Oc2cc(I)c(OCCCN3C(=O)c4ccccc4C3=O)c(I)c2)c(I)c1`, which Activity is on record?
A: Active

Q: With `O=C(O)Cc1cc(I)c(Oc2cc(I)c(OCCN3C(=O)c4ccccc4C3=O)c(I)c2)c(I)c1` as the compound, how does the Activity read?
A: Active

Q: `O=C(O)Cc1cc(I)c(Oc2cc(I)c(O)c(I)c2)c(I)c1` was tested. Which Activity did it give?
A: Active

Q: Which Activity does the source give for `C#CCOc1c(I)cc(Oc2c(I)cc(CC(=O)O)cc2I)cc1I` here?
A: Active
